Reference: PMC7926980, “The Antiproliferative and Apoptotic Effect of a Novel Synthesized S-Triazine Dipeptide Series, and Toxicity Screening in Zebrafish Embryos” (Molecules, 2021)

Key:
HEK-293 cells = assay: MTT cell viability assay, non-tumorigenic HEK-293; type: cell-based; conditions: Homo sapiens, HEK293, 72 h, non-tumorigenic cell line
Procedure: Additional assays were run with 3a, the most promising compound. Its toxicity was evaluated using HEK-293 (normal human embryonic kidney), which is a non-tumorigenic cell line.
In order to calculate the relative IC50 values, the antiproliferative effect of compounds 3a–o was tested in three cancer cell lines (MCF-7, MDA-MB-231, HCT-116) and normal epithelial embryonic kidney cells (HEK-293) using the MTT viability assay. The cells were seeded in 96-well plates at a density of 10 × 10^3 cells/mL, in a total volume of 200 µL per well. In total, 0.1% DMSO was used as a vehicle control. After 24 h, the cells were treated with 2 µL of the test compound, which had been pre-prepared as a stock solution to furnish the concentration range of the study (0.01–100 µM), and re-incubated for 72 h. The culture medium was then removed, and the cells were washed with phosphate-buffered saline (PBS), and 100 µL MTT was added (for a final concentration of 5 mg/mL MTT). The cells were incubated for 4 h in darkness at 37 °C. Next, 200 µL DMSO was added to each well, and the cells were maintained at room temperature in darkness for 20 min. The absorbance was detected with a microplate reader at 570 nm. The results were expressed as a percentage of viability relative to the vehicle control (100%). […]

MCF-7 cells [1] = assay: MTT cell viability assay, MCF-7; type: cell-based, human; conditions: 72 h treatment
Procedure: (§1) The antiproliferative activity of the synthesized compounds was evaluated by the 3-(4,5-dimethylthiazol-2-yl)-2,5-diphenyl tetrazolium bromide (MTT) cell viability assay. Two types of breast cancer cell lines—namely MCF-7, which has estrogen and progesterone receptors, and MDA-MB-231, which is triple negative—were used, in addition to a colon cancer cell line (HCT-116).
(§2) The target products 3a–o were evaluated for their antiproliferative activity using the MTT viability assay of the MCF-7, MDA-MB-231 and HCT-116 cell lines (in triplicate) on at least three independent occasions for the determination of the reported mean values.
(§3) The three human tumor cell lines MCF-7, MDA-MB-231 and HCT-116 were cultured in Dulbecco’s Modified Eagle’s Medium (DMEM) with 10% fetal bovine serum, 2 mM L-glutamine and 100 µg/mL penicillin/streptomycin. The cells were maintained at 37 °C in 5% CO2 in a humidified incubator. All of the cells were sub-cultured 3 times/week by trypsinization using TrypLE Express (1×).
(§4) In order to calculate the relative IC50 values, the antiproliferative effect of compounds 3a–o was tested in three cancer cell lines (MCF-7, MDA-MB-231, HCT-116) and normal epithelial embryonic kidney cells (HEK-293) using the MTT viability assay. The cells were seeded in 96-well plates at a density of 10 × 10^3 cells/mL, in a total volume of 200 µL per well. In total, 0.1% DMSO was used as a vehicle control. […] The culture medium was then removed, and the cells were washed with phosphate-buffered saline (PBS), and 100 µL MTT was added (for a final concentration of 5 mg/mL MTT). The cells were incubated for 4 h in darkness at 37 °C. Next, 200 µL DMSO was added to each well, and the cells were maintained at room temperature in darkness for 20 min. The absorbance was detected with a microplate reader at 570 nm. The results were expressed as a percentage of viability relative to the vehicle control (100%). The dose-response curves were plotted, and the IC50 values were obtained using Prism software (GraphPad Software, Inc., La Jolla, CA, USA). All of the experiments were repeated in three independent experiments.

zebrafish embryos = assay: Zebrafish embryo imaging (morphology, teratogenicity); type: in vivo; conditions: 1 mM, embryos at 48 hpf, versus untreated embryos
Excerpt: The treated embryos had cardiac edema, craniofacial defects, tail lesions, and a delay in embryonic development. These observations are consistent with the findings in the literature.
A Zeiss Observer D1 inverted microscope using Zeiss ZEN software was used to capture the images of the live zebrafish embryos.
Figure 6 Representative images of the zebrafish embryos 48 hpf (A) control or (B) treated.

MCF-7 cells [2] = assay: Annexin V-FITC/PI apoptotic assay by flow cytometry; type: cell-based, human; conditions: 2 µM, 48 h; control 8.3%
Procedure: In order to determine the capacity of compound 3a to induce apoptosis, an Annexin V-FITC/PI dual staining assay was performed on the MCF-7 cells by flow cytometry.
Flow cytometry using Annexin V and propidium iodide (PI) was performed in order to detect apoptotic cell death. MCF-7 cells were seeded at a density of 1 × 10^5 cells/well, treated with the vehicle (0.1% (v/v) EtOH) or compound 3a (2 µM), and incubated for 48 h. The cells were then harvested and washed twice in 1X binding buffer, and incubated in the dark for 30 min on ice in Annexin V-containing binding buffer [1:100]. They were then re-suspended in PI-containing binding buffer [1:1000]. The samples were analyzed immediately using a BD Accuri flow cytometer, and GraphPad Prism software version 5.01 was used to analyze the data. Four populations were identified during the assay: Annexin V-negative and PI-negative (Q4, healthy cells), Annexin V-positive and PI-negative (Q3, early apoptosis), Annexin V-positive and PI-positive (Q2, late apoptosis), and Annexin V-negative and PI-positive (Q1, necrosis).
Figure 5 Compound 3a potently induces apoptosis in breast cancer MCF-7 cells (Annexin V/PI Fluorescence-activated cell sorting (FACS)). (A) Flow cytometry analysis of the effect of compound 3a on MCF-7 cells. […] (B) The quantitative analysis of the apoptosis. […]

MDA-MB-231 cells = assay: MTT cell viability assay, MDA-MB-231; type: cell-based; conditions: Homo sapiens, 72 h treatment
Procedure: as §1, §2, §3, §4

## COC(=O)CNC(=O)CNc1nc(Nc2ccccc2)nc(N2CCOCC2)n1 [Compound 3a, Methyl (4-morpholino-6-(phenylamino)-1,3,5-triazin-2-yl) glycylglycinate]
HEK-293 cells
  IC50: > 50 µM
MCF-7 cells [1]
  IC50: 0.82 ± 0.37 µM
MCF-7 cells [1]; Homo sapiens, MCF7, 72 h
  IC50: < 1 µM
Zebrafish embryos
  embryonic abnormality or morphological difference in zebrafish embryo images: did not indicate any embryonic abnormality or morphological difference
MCF-7 cells [2]
  Annexin V-positive cells (total apoptotic cells): 37.4%
MDA-MB-231 cells
  IC50: 9.36 ± 1.15 µM
